Experimental findings from PubChem BioAssay AID1615 (Sanford-Burnham Center for Chemical Genomics, 2009) are described below.

The subject of this data set is aqueous buffer solubility, UV absorbance, 18 h equilibrium. Briefly: equilibrium solubility at several pH values – biophysical, UV absorbance, pH 5.0, 6.2, 7.4, ADME assay, late-stage follow-up (AID 1615). Conditions: at 300 µM, stronger effect = higher value.

Values after ≈ are worked out from the molar mass of the structure shown.

Regarding `C=CCn1c(SCC(=O)c2ccc(O)c(O)c2)nnc1-c1ccccc1OC`, the solubility was 18 µg/mL (≈ 45.3 µM). This compound had a solubility (measured here: solubility at pH 5.0) of 8.4 µg/mL (≈ 21.1 µM). Where the note is “measured here: solubility at pH 6.2”, this compound registered a solubility of 8.4 µg/mL (≈ 21.1 µM).
